Drawing on patent US9346798B2, “Dihydrobenzoxazine and tetrahydroquinoxaline sodium channel inhibitors” (AMGEN INC., priority 2012, dated 2016), this text covers IC50 and inhibition for 25 compounds.

Format in all cases: cell-based
Data set [1] concerns the target T1, Nav 1.7 (Homo sapiens (Human), UniProt Q15858). In words: Nav 1.7 in vitro assay, IonWorks Quattro (IWQ) population patch-clamp. Particulars: HEK 293 cells stably transfected with Nav 1.7; 26th pulse to -20 mV. (In general: The patch-clamp technique gives a direct electrical read-out from membranes.)
Data set [2] concerns the target T1, Nav 1.7. In words: Nav 1.7 in vitro PX assay, PatchXpress whole cell voltage clamp. Particulars: HEK 293 cells stably transfected with human Nav1.7; for IC50: partially inactivated state (20 to 50% inactivation). The essentials:
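Partially inactivated channels (20–50% inactivation at holding potential) were probed on automated patch clamp in stably transfected HEK293 cells, stepping to −10 mV for 20 msec every 10 s (0.1 Hz).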

Data set [3] addresses Nav 1.5 (Homo sapiens (Human), UniProt Q14524). In words: Nav 1.5 in vitro assay, IonWorks Quattro (IWQ) population patch-clamp. The conditions noted are these: HEK 293 cells stably transfected with Nav 1.5; 26th pulse to -20 mV.

Chain of Nav 1.5 (Q14524 whole entry): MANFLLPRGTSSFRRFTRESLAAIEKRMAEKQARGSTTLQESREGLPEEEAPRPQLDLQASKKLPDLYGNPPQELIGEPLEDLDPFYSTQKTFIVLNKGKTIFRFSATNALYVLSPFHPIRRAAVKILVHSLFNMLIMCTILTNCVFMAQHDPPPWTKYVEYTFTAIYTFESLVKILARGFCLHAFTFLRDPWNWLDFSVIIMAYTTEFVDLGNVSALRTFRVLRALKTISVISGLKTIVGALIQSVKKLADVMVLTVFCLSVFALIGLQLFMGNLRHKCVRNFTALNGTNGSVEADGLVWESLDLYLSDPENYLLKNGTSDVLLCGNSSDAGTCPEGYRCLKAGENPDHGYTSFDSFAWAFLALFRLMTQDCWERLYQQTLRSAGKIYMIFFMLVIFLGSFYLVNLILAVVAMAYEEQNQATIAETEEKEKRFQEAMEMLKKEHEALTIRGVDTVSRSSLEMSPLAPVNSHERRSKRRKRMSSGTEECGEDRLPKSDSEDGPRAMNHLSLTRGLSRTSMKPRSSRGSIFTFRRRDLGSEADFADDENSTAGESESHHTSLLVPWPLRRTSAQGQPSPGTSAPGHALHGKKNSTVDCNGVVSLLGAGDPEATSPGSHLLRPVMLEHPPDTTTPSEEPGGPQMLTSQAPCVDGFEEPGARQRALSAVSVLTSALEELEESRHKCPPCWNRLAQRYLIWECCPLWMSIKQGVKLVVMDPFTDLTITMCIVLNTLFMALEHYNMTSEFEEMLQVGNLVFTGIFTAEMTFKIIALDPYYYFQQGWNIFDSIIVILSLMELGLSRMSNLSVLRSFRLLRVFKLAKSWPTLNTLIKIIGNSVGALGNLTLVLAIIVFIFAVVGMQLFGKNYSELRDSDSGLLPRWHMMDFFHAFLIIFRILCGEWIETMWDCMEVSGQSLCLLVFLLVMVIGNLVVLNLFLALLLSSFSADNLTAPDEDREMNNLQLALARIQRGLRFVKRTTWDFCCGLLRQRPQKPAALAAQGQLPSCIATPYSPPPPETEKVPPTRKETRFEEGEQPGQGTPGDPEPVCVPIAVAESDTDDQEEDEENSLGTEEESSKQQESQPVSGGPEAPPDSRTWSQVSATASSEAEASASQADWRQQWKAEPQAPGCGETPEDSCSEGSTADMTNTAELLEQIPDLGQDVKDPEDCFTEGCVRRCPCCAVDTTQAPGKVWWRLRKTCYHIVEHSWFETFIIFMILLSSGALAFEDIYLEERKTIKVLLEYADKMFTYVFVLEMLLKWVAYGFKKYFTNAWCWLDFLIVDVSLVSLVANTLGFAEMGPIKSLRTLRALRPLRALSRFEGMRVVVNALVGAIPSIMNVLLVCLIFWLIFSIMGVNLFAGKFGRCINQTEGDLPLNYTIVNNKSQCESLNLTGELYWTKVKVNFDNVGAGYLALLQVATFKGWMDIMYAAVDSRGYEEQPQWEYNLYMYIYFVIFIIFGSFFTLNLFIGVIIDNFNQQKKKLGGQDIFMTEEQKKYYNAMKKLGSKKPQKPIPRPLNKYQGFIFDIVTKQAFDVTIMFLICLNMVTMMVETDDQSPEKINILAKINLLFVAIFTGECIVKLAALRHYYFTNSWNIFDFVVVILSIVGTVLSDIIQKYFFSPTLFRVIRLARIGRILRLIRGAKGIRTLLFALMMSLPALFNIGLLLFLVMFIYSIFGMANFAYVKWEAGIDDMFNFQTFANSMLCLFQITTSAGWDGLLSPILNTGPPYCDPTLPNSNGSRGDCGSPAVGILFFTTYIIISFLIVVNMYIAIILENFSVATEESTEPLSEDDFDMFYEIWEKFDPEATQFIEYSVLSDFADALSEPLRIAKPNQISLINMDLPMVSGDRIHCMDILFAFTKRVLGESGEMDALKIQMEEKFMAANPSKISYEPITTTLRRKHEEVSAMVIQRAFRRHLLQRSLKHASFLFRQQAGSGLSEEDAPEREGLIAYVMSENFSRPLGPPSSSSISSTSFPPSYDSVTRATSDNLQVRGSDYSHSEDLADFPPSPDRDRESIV
T1 sequence (Q15858 whole entry): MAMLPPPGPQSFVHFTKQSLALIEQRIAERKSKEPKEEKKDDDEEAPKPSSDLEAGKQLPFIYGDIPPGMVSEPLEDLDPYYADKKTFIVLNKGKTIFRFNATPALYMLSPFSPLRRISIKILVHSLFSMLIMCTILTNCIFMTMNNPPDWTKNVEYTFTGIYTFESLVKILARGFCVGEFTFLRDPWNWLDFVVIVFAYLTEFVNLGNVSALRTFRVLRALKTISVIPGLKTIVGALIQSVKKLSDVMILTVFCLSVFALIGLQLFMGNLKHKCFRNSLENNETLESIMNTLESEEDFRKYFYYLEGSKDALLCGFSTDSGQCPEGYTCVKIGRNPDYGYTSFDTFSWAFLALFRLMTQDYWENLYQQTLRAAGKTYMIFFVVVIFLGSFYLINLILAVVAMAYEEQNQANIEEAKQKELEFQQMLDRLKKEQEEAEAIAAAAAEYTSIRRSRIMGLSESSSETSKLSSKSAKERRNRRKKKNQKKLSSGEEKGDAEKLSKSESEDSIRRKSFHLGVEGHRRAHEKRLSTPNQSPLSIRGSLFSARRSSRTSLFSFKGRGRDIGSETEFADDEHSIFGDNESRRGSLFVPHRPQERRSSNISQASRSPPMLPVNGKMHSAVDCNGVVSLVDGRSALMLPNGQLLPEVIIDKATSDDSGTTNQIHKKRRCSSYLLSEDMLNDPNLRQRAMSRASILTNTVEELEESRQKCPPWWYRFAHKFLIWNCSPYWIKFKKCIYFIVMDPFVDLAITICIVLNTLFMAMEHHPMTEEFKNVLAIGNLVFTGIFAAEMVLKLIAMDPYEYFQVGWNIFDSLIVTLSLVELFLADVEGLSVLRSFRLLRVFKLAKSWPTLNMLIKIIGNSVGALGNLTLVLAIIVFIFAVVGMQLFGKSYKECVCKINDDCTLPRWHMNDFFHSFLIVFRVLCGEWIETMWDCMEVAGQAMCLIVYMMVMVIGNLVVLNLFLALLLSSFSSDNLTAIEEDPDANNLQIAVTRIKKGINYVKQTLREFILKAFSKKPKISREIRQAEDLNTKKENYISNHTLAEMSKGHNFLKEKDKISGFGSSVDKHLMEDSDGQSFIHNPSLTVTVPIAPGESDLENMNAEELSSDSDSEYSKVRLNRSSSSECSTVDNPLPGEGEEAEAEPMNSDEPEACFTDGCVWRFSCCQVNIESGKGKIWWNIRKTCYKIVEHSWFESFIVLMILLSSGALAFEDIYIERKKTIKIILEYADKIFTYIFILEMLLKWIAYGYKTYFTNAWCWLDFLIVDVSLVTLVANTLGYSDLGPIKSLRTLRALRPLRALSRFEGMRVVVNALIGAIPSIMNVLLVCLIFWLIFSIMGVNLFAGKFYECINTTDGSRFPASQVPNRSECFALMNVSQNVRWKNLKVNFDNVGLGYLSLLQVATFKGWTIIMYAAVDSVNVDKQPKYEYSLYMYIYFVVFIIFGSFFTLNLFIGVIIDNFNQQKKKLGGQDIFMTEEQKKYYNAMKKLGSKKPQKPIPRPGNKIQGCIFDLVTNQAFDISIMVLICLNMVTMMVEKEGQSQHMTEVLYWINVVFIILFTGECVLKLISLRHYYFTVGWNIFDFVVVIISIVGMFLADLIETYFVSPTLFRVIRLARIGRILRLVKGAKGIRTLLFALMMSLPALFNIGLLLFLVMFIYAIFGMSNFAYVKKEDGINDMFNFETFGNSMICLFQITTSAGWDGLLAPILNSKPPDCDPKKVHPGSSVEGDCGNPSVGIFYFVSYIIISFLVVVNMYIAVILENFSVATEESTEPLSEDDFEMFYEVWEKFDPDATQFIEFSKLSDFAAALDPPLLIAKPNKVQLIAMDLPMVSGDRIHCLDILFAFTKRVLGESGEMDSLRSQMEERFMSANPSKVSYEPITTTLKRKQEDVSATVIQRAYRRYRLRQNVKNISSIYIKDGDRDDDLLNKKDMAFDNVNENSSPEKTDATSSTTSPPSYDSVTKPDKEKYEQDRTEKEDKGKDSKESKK

Broadly, the IC50 is the concentration that inhibits the measured activity by half. A low value points to greater potency in that assay. As for `O=S(=O)(Nc1nccs1)c1ccc2c(c1)OCCN2c1ccc2scnc2c1` [Example 70, 4-(Benzo[D]Thiazol-5-Yl)-N-(Thiazol-2-Yl)-3,4-Dihydro-2H-Benzo[B][1,4]Oxazine-7-Sulfonamide 2,2,2-Trifluoroacetate], the IC50 in data set [1] is 638 nM; in data set [2], 5690 nM; in data set [3], above 10000 nM.
With `O=S(=O)(Nc1nccs1)c1ccc2c(c1)OCCN2c1ccc2ncsc2c1` [Example 71, 4-(Benzo[D]Thiazol-6-Yl)-N-(Thiazol-2-Yl)-3,4-Dihydro-2H-Benzo[B][1,4]Oxazine-7-Sulfonamide 2,2,2-Trifluoroacetate], the figures for the IC50 in data set [1], in data set [2] and in data set [3] were 605 nM, 5320 nM and above 10000 nM, respectively.
Taken in the same sequence, the figures for `O=S(=O)(Nc1nccs1)c1ccc2c(c1)OCCN2c1ccc(Cl)c(Cl)c1` [Example 74, 4-(3,4-Dichlorophenyl)-N-(Thiazol-2-Yl)-3,4-Dihydro-2H-Benzo[B][1,4]Oxazine-7-Sulfonamide 2,2,2-Trifluoroacetate] were 5240 nM, 4070 nM and 6080 nM.
With `Cc1cccc(N2CCOc3cc(S(=O)(=O)Nc4nccs4)ccc32)c1` [Example 75, N-(Thiazol-2-Yl)-4-(M-Tolyl)-3,4-Dihydro-2H-Benzo[B][1,4]Oxazine-7-Sulfonamide 2,2,2-Trifluoroacetate], the IC50 in data set [1] is 182 nM; in data set [2] it was 706 nM; in data set [3], 7370 nM.
In the case of `N#Cc1ccc(N2CCOc3cc(S(=O)(=O)Nc4nccs4)ccc32)cc1` [Example 76, 4-(4-Cyanophenyl)-N-(Thiazol-2-Yl)-3,4-Dihydro-2H-Benzo[B][1,4]Oxazine-7-Sulfonamide 2,2,2-Trifluoroacetate], the IC50 in data set [1] is 871 nM; in data set [2], 9230 nM; in data set [3], 6030 nM.
Consider `Cc1c(F)cccc1N1CCOc2cc(S(=O)(=O)Nc3nccs3)ccc21` [Example 78, 4-(3-Fluoro-2-Methylphenyl)-N-(Thiazol-2-Yl)-3,4-Dihydro-2H-Benzo[B][1,4]Oxazine-7-Sulfonamide 2,2,2-Trifluoroacetate], for which the IC50 was 249 nM in data set [1], 2220 nM in data set [2] and above 10000 nM in data set [3].
`Cc1ccc(F)cc1N1CCOc2cc(S(=O)(=O)Nc3nccs3)ccc21` [Example 79, 4-(5-Fluoro-2-Methylphenyl)-N-(Thiazol-2-Yl)-3,4-Dihydro-2H-Benzo[B][1,4]Oxazine-7-Sulfonamide 2,2,2-Trifluoroacetate]: the IC50 in data set [1] is 216 nM; in data set [2], 1180 nM; in data set [3] it was above 10000 nM.
For `Cc1ccc(F)c(N2CCOc3cc(S(=O)(=O)Nc4nccs4)ccc32)c1` [Example 80, 4-(2-Fluoro-5-Methylphenyl)-N-(Thiazol-2-Yl)-3,4-Dihydro-2H-Benzo[B][1,4]Oxazine-7-Sulfonamide 2,2,2-Trifluoroacetate], the figures for the IC50 in data set [1], in data set [2] and in data set [3] were 126 nM, 340 nM and 5640 nM, respectively.
Consider `Cc1cc(N2CCOc3cc(S(=O)(=O)Nc4nccs4)ccc32)ccc1F` [Example 81, 4-(4-Fluoro-3-Methylphenyl)-N-(Thiazol-2-Yl)-3,4-Dihydro-2H-Benzo[B][1,4]Oxazine-7-Sulfonamide 2,2,2-Trifluoroacetate], for which the IC50 was 288 nM in data set [1], 1650 nM in data set [2] and above 10000 nM in data set [3].
`O=S(=O)(Nc1nccs1)c1ccc2c(c1)OCCN2c1ccc(F)c(F)c1` [Example 84, 4-(3,4-Difluorophenyl)-N-(Thiazol-2-Yl)-3,4-Dihydro-2H-Benzo[B][1,4]Oxazine-7-Sulfonamide 2,2,2-Trifluoroacetate]: the IC50 in data set [1] worked out at 326 nM; in data set [2] it was 3040 nM; in data set [3], 3810 nM.
Consider `O=S(=O)(Nc1ncccn1)c1ccc2c(c1)OCCN2c1ccc(C(F)(F)F)cc1C1=CCNCC1` [Example 86, N-(Pyrimidin-2-Yl)-4-(2-(1,2,3,6-Tetrahydropyridin-4-Yl)-4-(Trifluoromethyl)Phenyl)-3,4-Dihydro-2H-Benzo[B][1,4]Oxazine-7-Sulfonamide], for which the figures for the IC50 in data set [1], in data set [2] and in data set [3] were 320 nM, 851 nM and 2260 nM, respectively.
In the case of `O=S(=O)(Nc1cccnn1)c1ccc2c(c1)OCCN2c1ccc(C(F)(F)F)cc1C1=CCNCC1` [Example 87, N-(Pyridazin-3-Yl)-4-(2-(1,2,3,6-Tetrahydropyridin-4-Yl)-4-(Trifluoromethyl)Phenyl)-3,4-Dihydro-2H-Benzo[B][1,4]Oxazine-7-Sulfonamide], the values for the IC50 in data set [1], in data set [2] and in data set [3] were 26 nM, 381 nM and above 10000 nM, respectively.
The matching figures for `O=S(=O)(Nc1cnccn1)c1ccc2c(c1)OCCN2c1ccc(C(F)(F)F)cc1C1=CCNCC1` [Example 88, N-(Pyrazin-2-Yl)-4-(2-(1,2,3,6-Tetrahydropyridin-4-Yl)-4-(Trifluoromethyl)Phenyl)-3,4-Dihydro-2H-Benzo[B][1,4]Oxazine-7-Sulfonamide]: 224 nM, 737 nM and above 10000 nM.
On to `N#Cc1cc(C(F)(F)F)ccc1N1CCOc2cc(S(=O)(=O)Nc3ccncn3)ccc21` [Example 89, 4-(2-Cyano-4-(Trifluoromethyl)Phenyl)-N-(Pyrimidin-4-Yl)-3,4-Dihydro-2H-Benzo[B][1,4]Oxazine-7-Sulfonamide], for which the IC50 in data set [1] came to 28.5 nM; in data set [2], 464 nM; in data set [3], 1140 nM.
Consider `N#Cc1cc(C(F)(F)F)ccc1N1CCOc2cc(S(=O)(=O)Nc3ncco3)ccc21` [Example 90, 4-(2-Cyano-4-(Trifluoromethyl)Phenyl)-N-(Oxazol-2-Yl)-3,4-Dihydro-2H-Benzo[B][1,4]Oxazine-7-Sulfonamide], for which the IC50 in data set [1] was 924 nM; in data set [2], 2590 nM; in data set [3], above 10000 nM.
Take `N#Cc1cc(C(F)(F)F)ccc1N1CCOc2cc(S(=O)(=O)Nc3ccno3)ccc21` [Example 91, 4-(2-Cyano-4-(Trifluoromethyl)Phenyl)-N-(Isoxazol-5-Yl)-3,4-Dihydro-2H-Benzo[B][1,4]Oxazine-7-Sulfonamide]: the results for the IC50 in data set [1], in data set [2] and in data set [3] were 3640 nM, 9210 nM and above 10000 nM, respectively.
Regarding `O=S(=O)(Nc1ccncn1)c1ccc2c(c1)OCCN2c1ncc(C(F)(F)F)cc1Cl` [Example 99, 4-(3-Chloro-5-(Trifluoromethyl)Pyridin-2-Yl)-N-(Pyrimidin-4-Yl)-3,4-Dihydro-2H-Benzo[B][1,4]Oxazine-7-Sulfonamide], the IC50 is 327 nM in data set [1], 4970 nM in data set [2] and above 10000 nM in data set [3].
Turning to `COc1ccc(C)nc1N1CCOc2cc(S(=O)(=O)Nc3nccs3)ccc21` [Example 109, 4-(3-methoxy-6-methyl-2-pyridinyl)-N-1,3-thiazol-2-yl-3,4-dihydro-2H-1,4-benzoxazine-7-sulfonamide], the half-inhibitory concentration (IC50) in data set [1] was 249 nM; in data set [2] it was 1980 nM; in data set [3] it was above 10000 nM.
The inhibition is the change of the read-out against control, counted positive when it falls. With `Cc1cc(F)cnc1N1CCOc2cc(S(=O)(=O)Nc3nccs3)ccc21` [Example 110, 4-(5-Fluoro-3-methylpyridin-2-yl)-N-(thiazol-2-yl)-3,4-dihydro-2H-benzo[b][1,4]oxazine-7-sulfonamide], the IC50 was 1700 nM in data set [1] and above 10000 nM in data set [3]. In data set [2] (HEK293, values marked *, 4.9 μM, read-out: Nav 1.7 PX percent inhibition at 4.9 μM), the inhibition at 4.9 µM is 39.2%.
For `COc1ncc(Cl)cc1N1CCOc2cc(S(=O)(=O)Nc3nccs3)ccc21` [Example 111, 4-(5-Chloro-2-methoxypyridin-3-yl)-N-(thiazol-2-yl)-3,4-dihydro-2H-benzo[b][1,4]oxazine-7-sulfonamide], the IC50 in data set [1] turned out to be 33.5 nM; in data set [2] it was 1050 nM; in data set [3] it was 3030 nM.
As for `CC(C)c1ccc(N2CCOc3cc(S(=O)(=O)Nc4nccs4)ccc32)cc1` [Example 112, 4-(4-Isopropylphenyl)-N-(thiazol-2-yl)-3,4-dihydro-2H-benzo[b][1,4]oxazine-7-sulfonamide], the IC50 is 1660 nM in data set [1], 12200 nM in data set [2] and above 10000 nM in data set [3].
For `O=S(=O)(Nc1nccs1)c1ccc2c(c1)OCCN2c1ccc(OCC(F)(F)F)cc1` [Example 113, N-(thiazol-2-yl)-4-(4-(2,2,2-trifluoroethoxy)phenyl)-3,4-dihydro-2H-benzo[b][1,4]oxazine-7-sulfonamide], the results for the IC50 in data set [1], in data set [2] and in data set [3] were 891 nM, 2720 nM and 3370 nM, respectively.
`COc1ccc(C(F)(F)F)cc1N1CCOc2cc(S(=O)(=O)Nc3nccs3)ccc21` [Example 114, 4-(2-Methoxy-5-(trifluoromethyl)phenyl)-N-(thiazol-2-yl)-3,4-dihydro-2H-benzo[b][1,4]oxazine-7-sulfonamide]: the IC50 was found to be 40.5 nM in data set [1], 278 nM in data set [2] and 5060 nM in data set [3].
The matching figures for `Cc1ccc(N2CCOc3cc(S(=O)(=O)Nc4nccs4)ccc32)cc1C#N` [Example 115, 4-(3-Cyano-4-methylphenyl)-N-(thiazol-2-yl)-3,4-dihydro-2H-benzo[b][1,4]oxazine-7-sulfonamide]: 1280 nM, 5570 nM and 7730 nM.
Regarding `Cc1cc(N2CCOc3cc(S(=O)(=O)Nc4nccs4)ccc32)ccc1C#N` [Example 116, 4-(4-Cyano-3-methylphenyl)-N-(thiazol-2-yl)-3,4-dihydro-2H-benzo[b][1,4]oxazine-7-sulfonamide], the IC50 was determined as 841 nM in data set [1], 4950 nM in data set [2] and 7360 nM in data set [3].
